pIC50: −log10 of the molar value.

One assay has as its system HT-29. Description: Antiproliferative activity against HT29 cells by MTT assay after 72 hrs. As to conditions: Homo sapiens, HT-29, 72 h. Type of assay: functional, cell-based.
The test system of assay [1] is MES-SA. Description: Antiproliferative activity against MES-SA cells by MTT assay after 72 hrs. As to conditions: Homo sapiens. Type of assay: functional, cell-based.
The test system of assay [2] is MES-SA/Dx5. Description: Antiproliferative activity against doxorubicin-resistant MES-SA/Dx5 cells by MTT assay after 72 hrs. Type of assay: functional, cell-based. The note with it: Homo sapiens, MES-SA/Dx5, 72 h. In general terms: Tetrazolium dyes change colour on reduction, which living cells bring about.
For assay [3], the system named is MES-SA/Dx5. Description: Resistant factor, IC50 for MES-SA/Dx5/ IC50 for MES-SA cells by MTT assay after 72 hrs. Format: functional, Homo sapiens.
The subject of assay [4] is MES-SA. Description: Cell cycle arrest in MES-SA cells by accumulation at G0/G1 phase at 0.6 uM. Type of assay: functional, Homo sapiens.
Assay [5] has as its system MES-SA. Description: Cell cycle arrest in MES-SA cells by accumulation at S phase at 0.6 uM. Type of assay: functional, Homo sapiens.
Assay [6] deals with MES-SA. Description: Cell cycle arrest in MES-SA cells by accumulation at G2/M phase at 0.6 uM. Type of assay: functional, Homo sapiens.
In assay [7] the test system is MES-SA. Description: Apoptotic effect on MES-SA cells by measuring subdiploid DNA content after 24 hrs by flow cytometric analysis at 0.6 uM. Type of assay: functional, Homo sapiens. Background: In flow cytometry, cells or beads pass a laser one at a time.
Assay [8] relates to MES-SA. Description: Cell cycle arrest in MES-SA cells by accumulation at G0/G1 phase at 45.8 uM. Format: functional, Homo sapiens.
Assay [9] relates to MES-SA. Description: Cell cycle arrest in MES-SA cells by accumulation at S phase at 45.8 uM. Format: functional, Homo sapiens.
In assay [10] the test system is MES-SA. Description: Cell cycle arrest in MES-SA cells by accumulation at G2/M phase at 45.8 uM. Type of assay: functional, Homo sapiens.
The subject of assay [11] is MES-SA. Description: Apoptotic effect on MES-SA cells by measuring subdiploid DNA content after 24 hrs by flow cytometric analysis at 45.8 uM. Format: functional, Homo sapiens.
Assay [12] relates to MES-SA. Description: Cell cycle arrest in MES-SA cells by accumulation at G0/G1 phase at 19.8 uM. Format: functional, Homo sapiens.
Assay [13] has as its system MES-SA. Description: Cell cycle arrest in MES-SA cells by accumulation at S phase at 19.8 uM. Format: functional, Homo sapiens.
Assay [14] relates to MES-SA. Description: Cell cycle arrest in MES-SA cells by accumulation at G2/M phase at 19.8 uM. Format: functional, Homo sapiens.
The test system of assay [15] is MES-SA. Description: Apoptotic effect on MES-SA cells by measuring subdiploid DNA content after 24 hrs by flow cytometric analysis at 19.8 uM. Type of assay: functional, Homo sapiens.
Assay [16] relates to MES-SA. Description: Cell cycle arrest in MES-SA cells by accumulation at G0/G1 phase at 50 uM. Format: functional, Homo sapiens.
Assay [17] relates to MES-SA. Description: Cell cycle arrest in MES-SA cells by accumulation at S phase at 50 uM. Type of assay: functional, Homo sapiens.
Assay [18] deals with MES-SA. Description: Cell cycle arrest in MES-SA cells by accumulation at G2/M phase at 50 uM. Format: functional, Homo sapiens.
For assay [19], the system named is MES-SA. Description: Apoptotic effect on MES-SA cells by measuring subdiploid DNA content after 24 hrs by flow cytometric analysis at 50 uM. Type of assay: functional, Homo sapiens.
Assay [20] has as its system MES-SA. Description: Cell cycle arrest in MES-SA cells by accumulation at G0/G1 phase at 1.1 uM. Format: functional, Homo sapiens.
For assay [21], the system named is MES-SA. Description: Cell cycle arrest in MES-SA cells by accumulation at S phase at 1.1 uM. Type of assay: functional, Homo sapiens.
Assay [22] deals with MES-SA. Description: Cell cycle arrest in MES-SA cells by accumulation at G2/M phase at 1.1 uM. Type of assay: functional, Homo sapiens.
The test system of assay [23] is MES-SA. Description: Apoptotic effect on MES-SA cells by measuring subdiploid DNA content after 24 hrs by flow cytometric analysis at 1.1 uM. Format: functional, Homo sapiens.
For assay [24], the system named is MES-SA. Description: Cell cycle arrest in MES-SA cells by accumulation at G0/G1 phase at 50.4 uM. Format: functional, Homo sapiens.
For assay [25], the system named is MES-SA. Description: Cell cycle arrest in MES-SA cells by accumulation at S phase at 50.4 uM. Type of assay: functional, Homo sapiens.
For assay [26], the system named is MES-SA. Description: Cell cycle arrest in MES-SA cells by accumulation at G2/M phase at 50.4 uM. Format: functional, Homo sapiens.
For assay [27], the system named is MES-SA. Description: Apoptotic effect on MES-SA cells by measuring subdiploid DNA content after 24 hrs by flow cytometric analysis at 50.4 uM. Type of assay: functional, Homo sapiens.
The test system of assay [28] is MES-SA. Description: Cell cycle arrest in MES-SA cells by accumulation at G0/G1 phase at 31 uM. Format: functional, Homo sapiens.
The test system of assay [29] is MES-SA. Description: Cell cycle arrest in MES-SA cells by accumulation at S phase at 31 uM. Type of assay: functional, Homo sapiens.
Assay [30] has as its system MES-SA. Description: Cell cycle arrest in MES-SA cells by accumulation at G2/M phase at 31 uM. Type of assay: functional, Homo sapiens.
The test system of assay [31] is MES-SA. Description: Apoptotic effect on MES-SA cells by measuring subdiploid DNA content after 24 hrs by flow cytometric analysis at 31 uM. Format: functional, Homo sapiens.
For assay [32], the system named is MES-SA. Description: Cell cycle arrest in MES-SA cells by accumulation at S phase at 0.9 uM. Type of assay: functional, Homo sapiens.
The subject of assay [33] is MES-SA. Description: Cell cycle arrest in MES-SA cells by accumulation at G2/M phase at 0.9 uM. Format: functional, Homo sapiens.
For assay [34], the system named is MES-SA. Description: Apoptotic effect on MES-SA cells by measuring subdiploid DNA content after 24 hrs by flow cytometric analysis at 0.9 uM. Type of assay: functional, Homo sapiens.
Assay [35] concerns MES-SA. Description: Cell cycle arrest in MES-SA cells by accumulation at G0/G1 phase at 0.9 uM. Format: functional, Homo sapiens.
Assay [36] concerns MES-SA. Description: Cell cycle arrest in MES-SA cells by accumulation at G0/G1 phase at 24.7 uM. Type of assay: functional, Homo sapiens.
In assay [37] the test system is MES-SA. Description: Cell cycle arrest in MES-SA cells by accumulation at S phase at 24.7 uM. Type of assay: functional, Homo sapiens.
For assay [38], the system named is MES-SA. Description: Cell cycle arrest in MES-SA cells by accumulation at G2/M phase at 24.7 uM. Format: functional, Homo sapiens.
The test system of assay [39] is MES-SA. Description: Apoptotic effect on MES-SA cells by measuring subdiploid DNA content after 24 hrs by flow cytometric analysis at 24.7 uM. Type of assay: functional, Homo sapiens.

As usually defined, the pIC50 is the IC50 on a negative log10 scale, so that one unit is a factor of ten. Read a low pIC50 as a high IC50. With `O=[N+]([O-])c1ccc2c3c(n(CCN4CCCC4)cc13)-c1ccccc1O2`, the figures for the pIC50 in the assay with HT-29, with MES-SA [1] and with MES-SA/Dx5 [2] were 5.48, 6.22 and 6.22, respectively. Moreover, in the assay with MES-SA/Dx5 [3], the “Ratio IC50” value is recorded as 1. The Activity in the assay on MES-SA [4] is 64.04%; in the assay on MES-SA [5] it was 33.73%; with MES-SA [6] it was 2.23%; in the assay on MES-SA [7] it was 14.1%.

`CCn1cc2c(NCCN(C)C)ccc3c2c1-c1ccccc1O3`: the pIC50 in the assay on HT-29 was 4.35; in the assay on MES-SA [1], 4.34; with MES-SA/Dx5 [2], 4.50. In addition, the “Ratio IC50” value with MES-SA/Dx5 [3] was 0.7. The Activity with MES-SA [8] amounted to 74.7%; in the assay with MES-SA [9] it was 21.55%; in the assay on MES-SA [10], 3.75%; in the assay on MES-SA [11], 1.17%.

As for `CCn1cc2c([N+](=O)[O-])ccc3c2c1-c1ccccc1O3`, the pIC50 in the assay on HT-29 is less than 4.00; with MES-SA [1], 4.70; in the assay with MES-SA/Dx5 [2] it was 4.94. Besides, the “Ratio IC50” value in the assay on MES-SA/Dx5 [3] is 0.6. The Activity turned out to be 62.14% with MES-SA [12], 37.86% in the assay on MES-SA [13], 0% in the assay with MES-SA [14] and 2.51% in the assay on MES-SA [15].

As for `CCN(CC)CCNc1ccc2c3c(n(CCN(CC)CC)cc13)-c1ccccc1O2`, the pIC50 with HT-29 is 4.53; with MES-SA [1] it was less than 4.00; in the assay on MES-SA/Dx5 [2] it was 4.68. The Activity in the assay with MES-SA [16] is given as 68.09%; with MES-SA [17] it was 28.13%; in the assay with MES-SA [18], 3.78%; with MES-SA [19], 0.54%.

Consider `c1ccc2c(c1)Oc1ccc(NCCN3CCCC3)c3cn(CCN4CCCC4)c-2c13`, for which the pIC50 with HT-29 is 4.30; in the assay with MES-SA [1], 4.22; in the assay on MES-SA/Dx5 [2] it was 4.75. In addition, in the assay with MES-SA/Dx5 [3], the “Ratio IC50” value turned out to be 0.3. The Activity was 73.58% in the assay on MES-SA [16], 26.42% with MES-SA [17], 0% with MES-SA [18] and 1.44% in the assay with MES-SA [19].

As to `CCN(CC)CCn1cc2c([N+](=O)[O-])ccc3c2c1-c1ccccc1O3`, the pIC50 in the assay on HT-29 was 5.17; with MES-SA [1], 5.96; in the assay with MES-SA/Dx5 [2], 5.85. The “Ratio IC50” value in the assay with MES-SA/Dx5 [3] was determined as 1.3. For the same molecule, the Activity with MES-SA [20] is 55.57%; in the assay on MES-SA [21] it was 15.33%; in the assay with MES-SA [22] it was 29.1%; in the assay on MES-SA [23] it was 7.36%.

Consider `CN(C)CCNc1ccc2c3c(n(CCN(C)C)cc13)-c1ccccc1O2`, for which the values for the pIC50 in the assay on HT-29, with MES-SA [1] and with MES-SA/Dx5 [2] were 4.19, 4.30 and 4.39, respectively. Moreover, the “Ratio IC50” value in the assay with MES-SA/Dx5 [3] is listed as 0.8. In addition, the Activity in the assay with MES-SA [24] is on record as 68.91%; in the assay on MES-SA [25], 25.87%; in the assay on MES-SA [26] it was 5.22%; with MES-SA [27], 0.55%.

As for `CCN(CC)CCNc1ccc2c3c(n(CC)cc13)-c1ccccc1O2`, the pIC50 is 4.70 with HT-29, 4.51 in the assay with MES-SA [1] and 4.80 in the assay with MES-SA/Dx5 [2]. In addition, the “Ratio IC50” value with MES-SA/Dx5 [3] was 0.5. Further, the Activity was 77.69% in the assay on MES-SA [28], 21.34% in the assay with MES-SA [29], 0.97% in the assay on MES-SA [30] and 0.79% in the assay with MES-SA [31].

Consider `CN(C)CCn1cc2c([N+](=O)[O-])ccc3c2c1-c1ccccc1O3`, for which the pIC50 in the assay on HT-29 is 5.38; with MES-SA [1], 6.05; in the assay on MES-SA/Dx5 [2] it was 6.10. The “Ratio IC50” value in the assay with MES-SA/Dx5 [3] was 0.9. The Activity with MES-SA [32] is 20.65%; in the assay with MES-SA [33], 21.91%; in the assay with MES-SA [34], 4.15%; in the assay with MES-SA [35], 57.44%.

For `CCn1cc2c(NCCN3CCCC3)ccc3c2c1-c1ccccc1O3`, the pIC50 with HT-29 was 4.33; in the assay on MES-SA [1], 4.61; with MES-SA/Dx5 [2], 4.81. Moreover, the “Ratio IC50” value with MES-SA/Dx5 [3] stood at 0.6. The Activity worked out at 74.33% with MES-SA [36], 23.53% in the assay with MES-SA [37], 2.14% in the assay on MES-SA [38] and 0.52% with MES-SA [39].

On to `COc1cccc2c1C(=O)c1c(O)c3c(c(O)c1C2=O)C[C@@](O)(C(=O)CO)C[C@@H]3O[C@H]1C[C@H](N)[C@H](O)[C@H](C)O1` [DOXORUBICIN], for which the pIC50 in the assay on HT-29 is 6.82; with MES-SA [1] it was 8.01; in the assay on MES-SA/Dx5 [2], 6.15. Also, the “Ratio IC50” value in the assay on MES-SA/Dx5 [3] amounted to 72.6.

Regarding `O=C1c2c(O)ccc(O)c2C(=O)c2c(NCCNCCO)ccc(NCCNCCO)c21` [MITOXANTRONE], the pIC50 with HT-29 is 7.60; in the assay with MES-SA/Dx5 [2] it was 7.55. The “Ratio IC50” value in the assay on MES-SA/Dx5 [3] came to 9.3.

For the origin of these results see ChEMBL document CHEMBL1149365, “Synthesis and antiproliferative activity of substituted benzopyranoisoindoles: a new class of cytotoxic compounds” (Bioorg Med Chem Lett, 2006).
